Assay: mn = molality of the nth substance listed, in mol/kg
Settings: 101.3 kPa, Liquid

N[C@@H](CCC(=O)[O-])C(=O)O.[Na+] [sodium (S)-2-amino-4-carboxybutanoate] + O
speed of sound [m/s]
Settings	278.15 K	288.15 K	298.15 K
Frequency=2 MHz, Linear variable-path acoustic interferometer, m1 = 0.0467	1433.6	–	–
Frequency=2 MHz, Linear variable-path acoustic interferometer, m1 = 0.0724	1437.7	–	–
Frequency=2 MHz, Linear variable-path acoustic interferometer, m1 = 0.091	1441	–	–
Frequency=2 MHz, Linear variable-path acoustic interferometer, m1 = 0.1095	1442.8	–	–
Frequency=2 MHz, Linear variable-path acoustic interferometer, m1 = 0.1355	1446.8	–	–
Frequency=2 MHz, Linear variable-path acoustic interferometer, m1 = 0.163	1451.4	–	–
Frequency=2 MHz, Linear variable-path acoustic interferometer, m1 = 0.1906	1455.3	–	–
Frequency=2 MHz, Linear variable-path acoustic interferometer, m1 = 0.2075	1458.8	–	–
Frequency=2 MHz, Linear variable-path acoustic interferometer, m1 = 0.2251	1461.7	–	–
Frequency=2 MHz, Linear variable-path acoustic interferometer, m1 = 0.2436	1464	–	–
Frequency=2 MHz, Linear variable-path acoustic interferometer, m1 = 0.2705	1468.1	–	–
Frequency=2 MHz, Linear variable-path acoustic interferometer, m1 = 0.2895	1471.7	–	–
Frequency=2 MHz, Linear variable-path acoustic interferometer, m1 = 0.302	1473.6	–	–
Frequency=3 MHz, Sing-around technique in a fixed-path interferometer, m1 = 0.0469	–	1472.9	1502.5
Frequency=3 MHz, Sing-around technique in a fixed-path interferometer, m1 = 0.072	–	1476.6	1505.8
Frequency=3 MHz, Sing-around technique in a fixed-path interferometer, m1 = 0.0904	–	1478.9	1508.2
Frequency=3 MHz, Sing-around technique in a fixed-path interferometer, m1 = 0.1082	–	1481.3	1510.5
Frequency=3 MHz, Sing-around technique in a fixed-path interferometer, m1 = 0.1368	–	1485.6	1514.4
Frequency=3 MHz, Sing-around technique in a fixed-path interferometer, m1 = 0.1628	–	1489.3	1517.9
Frequency=3 MHz, Sing-around technique in a fixed-path interferometer, m1 = 0.19	–	1492.9	1521.3
Frequency=3 MHz, Sing-around technique in a fixed-path interferometer, m1 = 0.2089	–	1495.3	1523.6
Frequency=3 MHz, Sing-around technique in a fixed-path interferometer, m1 = 0.2289	–	1497.5	1525.8
Frequency=3 MHz, Sing-around technique in a fixed-path interferometer, m1 = 0.2441	–	1499.7	1527.8
Frequency=3 MHz, Sing-around technique in a fixed-path interferometer, m1 = 0.264	–	1503.2	1531.1
Frequency=3 MHz, Sing-around technique in a fixed-path interferometer, m1 = 0.2916	–	1506.7	1533.9
Frequency=3 MHz, Sing-around technique in a fixed-path interferometer, m1 = 0.316	–	1509	1537

mass density [kg/m3]
Settings	278.15 K	288.15 K	298.15 K
Pycnometric method, m1 = 0.0467	1004.22	–	–
Pycnometric method, m1 = 0.0724	1006.57	–	–
Pycnometric method, m1 = 0.091	1008.26	–	–
Pycnometric method, m1 = 0.1095	1009.79	–	–
Pycnometric method, m1 = 0.1355	1012.41	–	–
Pycnometric method, m1 = 0.163	1014.89	–	–
Pycnometric method, m1 = 0.1906	1017.32	–	–
Pycnometric method, m1 = 0.2075	1018.82	–	–
Pycnometric method, m1 = 0.2251	1020.29	–	–
Pycnometric method, m1 = 0.2436	1022.15	–	–
Pycnometric method, m1 = 0.2705	1024.19	–	–
Pycnometric method, m1 = 0.2895	1026.12	–	–
Pycnometric method, m1 = 0.302	1027.42	–	–
Vibrating tube method, m1 = 0.0469	–	1003.34	1001.22
Vibrating tube method, m1 = 0.072	–	1005.66	1003.48
Vibrating tube method, m1 = 0.0904	–	1007.29	1005.08
Vibrating tube method, m1 = 0.1082	–	1008.87	1006.62
Vibrating tube method, m1 = 0.1368	–	1011.34	1009.04
Vibrating tube method, m1 = 0.1628	–	1013.63	1011.28
Vibrating tube method, m1 = 0.19	–	1016.04	1013.63
Vibrating tube method, m1 = 0.2089	–	1017.65	1015.21
Vibrating tube method, m1 = 0.2289	–	1019.31	1016.84
Vibrating tube method, m1 = 0.2441	–	1020.63	1018.13
Vibrating tube method, m1 = 0.264	–	1022.32	1019.79
Vibrating tube method, m1 = 0.2916	–	1024.67	1022.11
Vibrating tube method, m1 = 0.316	–	1026.69	1024.08

Reference: the NIST ThermoML archive (doi:10.1016/j.jct.2015.09.020)
